Measurements reported in ChEMBL document CHEMBL5537150, “Synthesis of melampomagnolide B derivatives as potential anti-Triple Negative Breast Cancer agents” (Eur J Med Chem, 2024).
Calls of active or inactive are those of the source. No cut-off for these calls is given here.

Key:
4T1 [1] = assay: Antitumor activity against mouse 4T1 cells implanted in Balb/c mouse assessed as inhibition of tumor weight at 10 mg/kg,ip administrated every two days for 20 days; type: functional, organism-based; details: time 20.0 day
MDA-MB-231 [2] = assay: Inhibition of NF-kappaB signalling pathway in human MDA-MB-231 cells assessed as effect on total p65 protein level at 0.2 to 2 uM incubated for 48 hrs by Western blotting analysis; type: cell-based; details: dose 0.2-2 µM
MDA-MB-231 [3] = assay: Induction of apoptosis in human MDA-MB-231 cells assessed as upregulation of Bax protein expression incubated for 48 hrs by Western blotting analysis; type: functional, cell-based
MDA-MB-231 [4] = assay: Induction of apoptosis in human MDA-MB-231 cells assessed as downregulation of MCL-1 protein expression incubated for 48 hrs by Western blotting analysis; type: functional, cell-based
MDA-MB-468 [5] = assay: Induction of cell cycle arrest in human MDA-MB-468 cells assessed as decrease in accumulation of cells at G1 phase at 0.2 to 2 uM incubated for 48 hrs by RNase/PI staining based flow cytometric analysis; type: functional; details: dose 0.2-2 µM
MDA-MB-231 [6] = assay: Induction of apoptosis in human MDA-MB-231 cells at 5 uM incubated for 48 hrs by annexin-V-APC/PI staining based flow cytometric analysis (reference value: 1.81 +/- 0.47 %); type: functional
MDA-MB-231 [7] = assay: Inhibition of NF-kappaB signalling pathway in human MDA-MB-231 cells assessed as downregulation of nuclear p65 expression at 0.2 to 2 uM incubated for 48 hrs by Western blotting analysis; type: cell-based; details: dose 0.2-2 µM
MDA-MB-231 [8] = assay: Induction of cell cycle arrest in human MDA-MB-231 cells assessed as downregulation of Cdc25c protein expression incubated for 48 hrs by Western blotting analysis; type: functional, cell-based
MDA-MB-468 [9] = assay: Induction of cell cycle arrest in human MDA-MB-468 cells assessed as downregulation of Cyclin B1 protein expression incubated for 48 hrs by Western blotting analysis; type: functional, cell-based
MDA-MB-231 [10] = assay: Induction of cell cycle arrest in human MDA-MB-231 cells assessed as downregulation of Cyclin B1 protein expression incubated for 48 hrs by Western blotting analysis; type: functional, cell-based
MDA-MB-468 [11] = assay: Induction of apoptosis in human MDA-MB-468 cells at 2 uM incubated for 48 hrs by annexin-V-APC/PI staining based flow cytometric analysis (reference value: 5.38 +/- 1.63 %); type: functional
MDA-MB-231 [12] = assay: Induction of cell cycle arrest in human MDA-MB-231 cells assessed as decrease in accumulation of cells at G1 phase at 0.2 to 2 uM incubated for 48 hrs by RNase/PI staining based flow cytometric analysis; type: functional; details: dose 0.2-2 µM
4T1 [13] = assay: Antitumor activity against mouse 4T1 cells implanted in Balb/c mouse assessed as inhibition of tumor volume at 10 mg/kg,ip administrated every two days for 20 days; type: functional, organism-based; details: time 20.0 day
MCF7 = assay: Antiproliferative activity against human MCF7 cells assessed as inhibition of cell growth incubated for 72 hrs by MTT assay; type: functional, cell-based; details: MCF7, 72 h
MDA-MB-468 [14] = assay: Induction of apoptosis in human MDA-MB-468 cells at 1 uM incubated for 48 hrs by annexin-V-APC/PI staining based flow cytometric analysis (reference value: 5.38 +/- 1.63 %); type: functional
4T1 [15] = assay: Antitumor activity against mouse 4T1 cells implanted in Balb/c mouse assessed as decrease in spleen weight at 10 mg/kg,ip administrated every two days for 20 days; type: functional, organism-based; details: time 20.0 day
MDA-MB-468 [16] = assay: Induction of cell cycle arrest in human MDA-MB-468 cells assessed as downregulation of Cdc25c protein expression incubated for 48 hrs by Western blotting analysis; type: functional, cell-based
MDA-MB-468 [17] = assay: Induction of apoptosis in human MDA-MB-468 cells at 0.2 uM incubated for 48 hrs by annexin-V-APC/PI staining based flow cytometric analysis (reference value: 5.38 +/- 1.63 %); type: functional
MDA-MB-231 [18] = assay: Induction of cell cycle arrest in human MDA-MB-231 cells assessed as increase in accumulation of cells at S phase at 0.2 to 2 uM incubated for 48 hrs by RNase/PI staining based flow cytometric analysis; type: functional; details: dose 0.2-2 µM
MDA-MB-468 [19] = assay: Induction of cell cycle arrest in human MDA-MB-468 cells assessed as increase in accumulation of cells at G2/M phase at 0.2 to 2 uM incubated for 48 hrs by RNase/PI staining based flow cytometric analysis; type: functional; details: dose 0.2-2 µM
MDA-MB-231 [20] = assay: Inhibition of NF-kappaB signalling pathway in human MDA-MB-231 cells assessed as upregulation of cytoplasmic p65 expression at 0.2 to 2 uM incubated for 48 hrs by Western blotting analysis; type: cell-based; details: dose 0.2-2 µM
MDA-MB-231 [21] = assay: Inhibition of NF-kappaB signalling pathway in human MDA-MB-231 cells assessed as downregulation of IkappaBalpha phosphorylation at 0.5 to 2 uM incubated for 48 hrs by Western blotting analysis; type: cell-based; details: dose 0.5-2 µM
MDA-MB-231 [22] = assay: Induction of cell cycle arrest in human MDA-MB-231 cells assessed as increase in accumulation of cells at G2/M phase at 0.2 to 2 uM incubated for 48 hrs by RNase/PI staining based flow cytometric analysis; type: functional; details: dose 0.2-2 µM
NIH3T3 = assay: Cytotoxicity against mouse 3T3 cells at 1 uM incubated for 72 hrs by MTT assay; type: toxicity, cell-based; details: nih3t3, 72 h
MDA-MB-231 [23] = assay: Antimigratory activity in human MDA-MB-231 cells assessed as downregulation of N-cadherin protein expression incubated for 48 hrs by Western blotting analysis; type: functional, cell-based
MDA-MB-231 [24] = assay: Induction of apoptosis in human MDA-MB-231 cells assessed as downregulation of BCL-2 protein expression incubated for 48 hrs by Western blotting analysis; type: functional, cell-based
MDA-MB-231 [25] = assay: Inhibition of NF-kappaB signalling pathway in human MDA-MB-231 cells assessed as inhibition of p65 nuclear translocation at 0.2 to 2 uM incubated for 48 hrs by Western blotting analysis; type: cell-based; details: dose 0.2-2 µM
MDA-MB-231 [26] = assay: Antimigratory activity in human MDA-MB-231 cells assessed as reduction in number of migrated cells incubated for 48 hrs by crystal violet staining based transwell assay; type: functional, cell-based
MDA-MB-468 [27] = assay: Induction of apoptosis in human MDA-MB-468 cells at 5 uM incubated for 48 hrs by annexin-V-APC/PI staining based flow cytometric analysis (reference value: 5.38 +/- 1.63 %); type: functional
[28] = Toxicity in Balb/c mouse implanted with mouse 4T1 cells assessed as decrease in body weight at 10 mg/kg,ip administrated every two days for 20 days; type: organism-based; details: in vivo, 480 h, time 20 day
MDA-MB-468 [29] = assay: Antimigratory activity in human MDA-MB-468 cells assessed as downregulation of N-cadherin protein expression incubated for 48 hrs by Western blotting analysis; type: functional, cell-based
MDA-MB-231 [30] = assay: Antiproliferative activity against human MDA-MB-231 cells assessed as inhibition of cell growth incubated for 72 hrs by MTT assay; type: functional, cell-based; details: MDA-MB-231, 72 h
MDA-MB-468 [31] = assay: Antiproliferative activity against human MDA-MB-468 cells assessed as inhibition of cell growth incubated for 72 hrs by MTT assay; type: functional, cell-based; details: MDA-MB-468, 72 h
MDA-MB-468 [32] = assay: Induction of cell cycle arrest in human MDA-MB-468 cells assessed as increase in accumulation of cells at S phase at 0.2 to 2 uM incubated for 48 hrs by RNase/PI staining based flow cytometric analysis; type: functional; details: dose 0.2-2 µM
MDA-MB-231 [33] = assay: Antimigratory activity in human MDA-MB-231 cells assessed as downregulation of Vimentin protein expression incubated for 48 hrs by Western blotting analysis; type: functional, cell-based

C=C1C(=O)O[C@H]2[C@H]1CC/C(COc1ccc(-c3cc(=S)ss3)cc1)=C\CC[C@@]1(C)O[C@@H]21
Activity (4T1 [1]): Active
inhibition (MDA-MB-231 [2]): inactive
Activity (MDA-MB-231 [3]): Dose-Dependent Effect
Activity (MDA-MB-231 [4]): Dose-Dependent Effect
Activity (MDA-MB-468 [5]): Active
Activity (MDA-MB-231 [6]): 71.28%
inhibition (MDA-MB-231 [7]): Active
Activity (MDA-MB-231 [8]): Dose-Dependent Effect
Activity (MDA-MB-468 [9]): Dose-Dependent Effect
Activity (MDA-MB-231 [10]): Dose-Dependent Effect
Activity (MDA-MB-468 [11]): 8.64%
Activity (MDA-MB-231 [12]): Active
Activity (4T1 [13]): Active
IC50 (MCF7): 3840 nM
Activity (MDA-MB-468 [14]): 6.4%
Activity (4T1 [15]): Active
Activity (MDA-MB-468 [16]): Dose-Dependent Effect
Activity (MDA-MB-468 [17]): 4.32%
Activity (MDA-MB-231 [18]): Active
Activity (MDA-MB-468 [19]): Active
inhibition (MDA-MB-231 [20]): Active
inhibition (MDA-MB-231 [21]): Active
Activity (MDA-MB-231 [22]): Active
Activity (NIH3T3): Toxic
Activity (MDA-MB-231 [23]): Dose-Dependent Effect
Activity (MDA-MB-231 [24]): Dose-Dependent Effect
inhibition (MDA-MB-231 [25]): Active
Activity (MDA-MB-231 [26]): Dose-Dependent Effect
Activity (MDA-MB-468 [27]): 43.96%
Activity [28]: Toxic
Activity (MDA-MB-468 [29]): Dose-Dependent Effect
IC50 (MDA-MB-231 [30]): 890 nM
IC50 (MDA-MB-468 [31]): 1520 nM
Activity (MDA-MB-468 [32]): Active
Activity (MDA-MB-231 [33]): Dose-Dependent Effect
